Test results as given in ChEMBL document CHEMBL4152249, “Alkoxyphenylthiazoles with broad-spectrum activity against multidrug-resistant gram-positive bacterial pathogens” (Eur J Med Chem, 2018).

How the values were obtained:
Staphylococcus aureus [1] = assay: Antibacterial activity against methicillin-resistant Staphylococcus aureus 2658 RCMB after 20 hrs by broth microdilution assay; assay type: functional
Staphylococcus aureus [2] = assay: Antibacterial activity against Staphylococcus aureus after 20 hrs by broth microdilution assay; assay type: functional
Staphylococcus aureus [3] = assay: Bactericidal activity against methicillin-sensitive Staphylococcus aureus NRS107 incubated for 20 hrs followed by re-plating on tryptic soy agar plates at 37 degC for 18 hrs by broth microdilution assay; assay type: functional
Staphylococcus aureus [4] = assay: Antibacterial activity against methicillin-resistant Staphylococcus aureus after 20 hrs by broth microdilution assay; assay type: functional
Staphylococcus aureus [5] = assay: Bactericidal activity against linezolid-resistant Staphylococcus aureus NRS119 incubated for 20 hrs followed by re-plating on tryptic soy agar plates at 37 degC for 18 hrs by broth microdilution assay; assay type: functional
Staphylococcus aureus [6] = assay: Bactericidal activity against Staphylococcus aureus USA400 NRS123 incubated for 20 hrs followed by re-plating on tryptic soy agar plates at 37 degC for 18 hrs by broth microdilution assay; assay type: functional
Staphylococcus aureus [7] = assay: Bactericidal activity against Staphylococcus aureus USA300 NRS384 incubated for 20 hrs followed by re-plating on tryptic soy agar plates at 37 degC for 18 hrs by broth microdilution assay; assay type: functional
Staphylococcus aureus [8] = assay: Antibacterial activity against methicillin-resistant Staphylococcus aureus NRS385 after 20 hrs by broth microdilution assay; assay type: functional; conditions: NRS385, 20 h
Staphylococcus aureus [9] = assay: Bactericidal activity against methicillin-resistant Staphylococcus aureus NRS385 incubated for 20 hrs followed by re-plating on tryptic soy agar plates at 37 degC for 18 hrs by broth microdilution assay; assay type: functional
Staphylococcus aureus [10] = assay: Antibacterial activity against methicillin-resistant Staphylococcus aureus NRS386 after 20 hrs by broth microdilution assay; assay type: functional; conditions: NRS386, 20 h
Staphylococcus aureus [11] = assay: Bactericidal activity against methicillin-resistant Staphylococcus aureus NRS386 incubated for 20 hrs followed by re-plating on tryptic soy agar plates at 37 degC for 18 hrs by broth microdilution assay; assay type: functional
Staphylococcus aureus [12] = assay: Antibacterial activity against vancomycin-resistant Staphylococcus aureus VRSA10 after 20 hrs by broth microdilution assay; assay type: functional; conditions: VRSA10, 20 h
Staphylococcus aureus [13] = assay: Bactericidal activity against vancomycin-resistant Staphylococcus aureus VRSA10 incubated for 20 hrs followed by re-plating on tryptic soy agar plates at 37 degC for 18 hrs by broth microdilution assay; assay type: functional
Staphylococcus aureus [14] = assay: Antibacterial activity against vancomycin-resistant Staphylococcus aureus VRSA12 after 20 hrs by broth microdilution assay; assay type: functional; conditions: VRSA12, 20 h
Staphylococcus aureus [15] = assay: Bactericidal activity against vancomycin-resistant Staphylococcus aureus VRSA12 incubated for 20 hrs followed by re-plating on tryptic soy agar plates at 37 degC for 18 hrs by broth microdilution assay; assay type: functional
[16] = tested on: Staphylococcus epidermidis; assay: Antibacterial activity against methicillin-resistant Staphylococcus epidermidis NRS101 after 20 hrs by broth microdilution assay; assay type: functional; conditions: NRS101, 20 h
[17] = tested on: Staphylococcus epidermidis; assay: Bactericidal activity against methicillin-resistant Staphylococcus epidermidis NRS101 incubated for 20 hrs followed by re-plating on tryptic soy agar plates at 37 degC for 18 hrs by broth microdilution assay; assay type: functional
Enterococcus faecalis [18] = assay: Antibacterial activity against vancomycin-resistant Enterococcus faecalis ATCC 51299 after 20 hrs by broth microdilution assay; assay type: functional; conditions: ATCC 51299, 20 h
Enterococcus faecalis [19] = assay: Bactericidal activity against vancomycin-resistant Enterococcus faecalis ATCC 51299 incubated for 20 hrs followed by re-plating on tryptic soy agar plates at 37 degC for 18 hrs by broth microdilution assay; assay type: functional
Enterococcus faecium [20] = assay: Antibacterial activity against vancomycin-resistant Enterococcus faecium ATCC 700221 after 20 hrs by broth microdilution assay; assay type: functional; conditions: ATCC 700221, 20 h
Enterococcus faecium [21] = assay: Bactericidal activity against vancomycin-resistant Enterococcus faecium ATCC 700221 incubated for 20 hrs followed by re-plating on tryptic soy agar plates at 37 degC for 18 hrs by broth microdilution assay; assay type: functional
Listeria monocytogenes [22] = assay: Antibacterial activity against Listeria monocytogenes ATCC 19111 after 20 hrs by broth microdilution assay; assay type: functional; conditions: ATCC 19111, 20 h
Listeria monocytogenes [23] = assay: Bactericidal activity against Listeria monocytogenes ATCC 19111 incubated for 20 hrs followed by re-plating on tryptic soy agar plates at 37 degC for 18 hrs by broth microdilution assay; assay type: functional
Streptococcus pneumoniae [24] = assay: Antibacterial activity against cephalosporin-resistant Streptococcus pneumoniae ATCC 51916 after 20 hrs by broth microdilution assay; assay type: functional; conditions: ATCC 51916, 20 h
Streptococcus pneumoniae [25] = assay: Bactericidal activity against cephalosporin-resistant Streptococcus pneumoniae ATCC 51916 incubated for 20 hrs followed by re-plating on tryptic soy agar plates at 37 degC for 18 hrs by broth microdilution assay; assay type: functional
Streptococcus pneumoniae [26] = assay: Antibacterial activity against methicillin-resistant Streptococcus pneumoniae ATCC 700677 after 20 hrs by broth microdilution assay; assay type: functional; conditions: ATCC 700677, 20 h
Streptococcus pneumoniae [27] = assay: Bactericidal activity against methicillin-resistant Streptococcus pneumoniae ATCC 700677 incubated for 20 hrs followed by re-plating on tryptic soy agar plates at 37 degC for 18 hrs by broth microdilution assay; assay type: functional
Enterococcus faecalis [28] = assay: Ratio of MBC to MIC for vancomycin-resistant Enterococcus faecalis ATCC 51299; assay type: functional
Listeria monocytogenes [29] = assay: Ratio of MBC to MIC for Listeria monocytogenes ATCC 19111; assay type: functional
Staphylococcus aureus [30] = assay: Bactericidal activity against Staphylococcus aureus USA400 assessed as reduction in colony forming unit at 6 times MIC treated for 2 hrs followed by re-plating on tryptic soy agar plates at 37 degC for 18 to 20 hrs by broth microdilution assay; assay type: functional; design: scale not given: the % may be the effect or the level left
Staphylococcus aureus [31] = assay: Bactericidal activity against Staphylococcus aureus USA400 assessed as reduction in colony forming unit at 3 times MIC treated for 4 hrs followed by re-plating on tryptic soy agar plates at 37 degC for 18 to 20 hrs by broth microdilution assay; assay type: functional; design: scale not given: the % may be the effect or the level left
Staphylococcus aureus [32] = assay: Antibacterial activity against methicillin-resistant Staphylococcus aureus USA400 NRS123 assessed as ratio of MIC after and before 14 passages over 2 weeks by broth microdilution method; assay type: functional
Caco-2 = assay: Cytotoxicity against human Caco2 cells assessed as effect on cell viability up to 64 ug/ml after 2 hrs by MTS assay; assay type: cell-based; conditions: caco-2, 2 h
[33] = Selectivity index, ratio of compound effect for human Caco2 cells at maximum non-toxic concentration concentration to MIC for methicillin-resistant Staphylococcus epidermidis NRS101; assay type: toxicity; conditions: Caco-2 cells, read-out: Selectivity Index
[34] = Selectivity index, ratio of compound effect for human Caco2 cells at maximum non-toxic concentration concentration to MIC for vancomycin-resistant Enterococcus faecalis ATCC 51299; assay type: toxicity; conditions: Caco-2 cells, read-out: Selectivity Index
[35] = Selectivity index, ratio of compound effect for human Caco2 cells at maximum non-toxic concentration concentration to MIC for vancomycin-resistant Enterococcus faecium ATCC 700221; assay type: toxicity; conditions: Caco-2 cells, read-out: Selectivity Index
[36] = Selectivity index, ratio of compound effect for human Caco2 cells at maximum non-toxic concentration concentration to MIC for Listeria monocytogenes ATCC 19111; assay type: toxicity; conditions: Caco-2 cells, read-out: Selectivity Index
[37] = Selectivity index, ratio of compound effect for human Caco2 cells at maximum non-toxic concentration concentration to MIC for cephalosporin-resistant Streptococcus pneumoniae ATCC 51916; assay type: toxicity; conditions: Caco-2 cells, read-out: Selectivity Index
[38] = Selectivity index, ratio of compound effect for human Caco2 cells at maximum non-toxic concentration concentration to MIC for methicillin-resistant Streptococcus pneumoniae ATCC 700677; assay type: toxicity; conditions: Caco-2 cells, read-out: Selectivity Index

CCCCCCCOc1ccc(-c2nc(C)c(-c3ccnc(NC(=N)N4CCN(C)CC4)n3)s2)cc1
1: Ratio (Enterococcus faecalis [28]) | Ratio (Listeria monocytogenes [29]) | Ratio (Staphylococcus aureus [32])
0.78 µg/mL: MIC (Staphylococcus aureus [1])
100%: Activity (Staphylococcus aureus [30]) | Activity (Staphylococcus aureus [31])
16 µg/mL: MBC (Enterococcus faecalis [19]) | MIC (Streptococcus pneumoniae [24]) | MBC (Streptococcus pneumoniae [25]) | MIC (Streptococcus pneumoniae [26]) | MBC (Streptococcus pneumoniae [27])
4 µg/mL: MIC (Listeria monocytogenes [22])
7 to 82: selectivity ratio [33] | selectivity ratio [34] | selectivity ratio [35] | selectivity ratio [36] | selectivity ratio [37] | selectivity ratio [38]
Non-Toxic: Activity (Caco-2)
8 µg/mL: MIC (Staphylococcus aureus [2]) | MBC (Staphylococcus aureus [3]) | MIC (Staphylococcus aureus [4]) | MBC (Staphylococcus aureus [5]) | MBC (Staphylococcus aureus [6]) | MBC (Staphylococcus aureus [7]) | MIC (Staphylococcus aureus [8]) | MBC (Staphylococcus aureus [9]) | MIC (Staphylococcus aureus [10]) | MBC (Staphylococcus aureus [11]) | MIC (Staphylococcus aureus [12]) | MBC (Staphylococcus aureus [13]) | MIC (Staphylococcus aureus [14]) | MBC (Staphylococcus aureus [15]) | MIC [16] | MBC [17] | MIC (Enterococcus faecalis [18]) | MIC (Enterococcus faecium [20]) | MBC (Enterococcus faecium [21]) | MBC (Listeria monocytogenes [23])
